The target of assay [1] is T1, COX-1 (Homo sapiens, UniProt P23219). In words: Human Whole Blood Assay, COX-1 (Clotting-induced TxB2 Production). The class given is cell-based. Further details: endogenous in cells. The settings on record: clotting-induced TxB2, 1 hour, Table III, read-out: COX-1 (IC50) HWB. The text has this:
As well, platelets in whole blood contain a large amount of the COX-1 enzyme. Immediately following blood clotting, platelets are activated through a thrombin-mediated mechanism. […] Therefore, the degree of selectivity by the test compound can be determined by measuring the levels of PGE2 after LPS induction (COX-2) and TxB2 following blood clotting (COX-1) in the same assay.
B. COX-1 (Clotting-induced TxB2 Production)
Fresh blood is collected into vacutainers containing no anticoagulants. Aliquots of 500 μL are immediately transferred to siliconized microcentrifuge tubes preloaded with 2 μL of either DMSO or a test compound at final concentrations varying from 10 nM to 30 μM. The tubes are vortexed and incubated at 37° C. for 1 hour to allow blood to clot. At the end of incubation, serum is obtained by centrifugation (12,000×g for 5 min.). A 100 μL aliquot of serum is mixed with 400 μL of methanol for protein precipitation.

Assay [2] relates to carrageenan-induced paw edema. In words: Rat Paw Edema Assay. Format: in vivo, Male Sprague-Dawley rats. To be noted: po, paw volume 3 hr, Table IV. As for the experimental part:
Male Sprague-Dawley rats (150-200 g) are fasted overnight and are given, po, either vehicle (1% methocel or 5% Tween 80) or a test compound. One hr later, a line is drawn using a permanent marker at the level above the ankle in one hind paw to define the area of the paw to be monitored. The paw volume (V0) is measured using a plethysmometer (Ugo-Basile, Italy) based on the principle of water displacement. The animals are then injected subplantarly with 50 μl of 1% carrageenan solution in saline (FMC Corp, Maine) into the paw using an insulin syringe with a 25-gauge needle (i.e. 500 μg carrageenan per paw). Three hr later, the paw volume (V3) is measured and the increases in paw volume (V3 -VO) are calculated. The animals are sacrificed by CO2 asphyxiation and the absence or presence of stomach lesions scored. Data is compared with the vehicle-control values and percent inhibition calculated. All treatment groups are coded to eliminate observer bias.

In assay [3] the target is T2, CHO [hCOX-1] (Homo sapiens, UniProt P23219).
T2 construct: expressed in transfected cells; host or cells: Chinese hamster ovary (CHO) cells, vector pCDNAIII
T2 sequence (P23219 24-599): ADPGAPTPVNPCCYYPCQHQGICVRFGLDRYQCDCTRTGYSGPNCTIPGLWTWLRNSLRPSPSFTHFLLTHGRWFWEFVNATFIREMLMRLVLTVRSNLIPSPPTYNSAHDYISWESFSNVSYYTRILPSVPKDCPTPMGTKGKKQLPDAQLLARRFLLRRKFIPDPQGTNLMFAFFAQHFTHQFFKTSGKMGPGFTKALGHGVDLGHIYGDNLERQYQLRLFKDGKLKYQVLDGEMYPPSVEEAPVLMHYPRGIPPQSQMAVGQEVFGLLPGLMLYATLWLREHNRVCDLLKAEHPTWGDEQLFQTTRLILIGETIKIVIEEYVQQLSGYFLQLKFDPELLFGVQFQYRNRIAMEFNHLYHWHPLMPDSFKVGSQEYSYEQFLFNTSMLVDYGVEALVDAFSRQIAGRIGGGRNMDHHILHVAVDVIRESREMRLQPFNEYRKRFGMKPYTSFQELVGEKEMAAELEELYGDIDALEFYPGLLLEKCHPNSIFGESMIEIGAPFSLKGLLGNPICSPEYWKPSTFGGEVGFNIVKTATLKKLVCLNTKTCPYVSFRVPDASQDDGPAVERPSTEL
In words: Whole Cell Assay for COX-1 using CHO Transfected Cell Lines. Format: cell-based. The settings on record: CHO [hCOX-1] cells, 0.5 μM AA, PGE2. As for the experimental part:
Chinese hamster ovary (CHO) cell lines which have been stably transfected with an eukaryotic expression vector pCDNAIII containing either the human COX-1 or COX-2 cDNA's are used for the assay. These cell lines are referred to as CHO [hCOX-1] and CHO [hCOX-2], respectively. […] Cells (0.3×10^6 cells in 200 μl) are preincubated with 3 μl of the test drug or DMSO vehicle for 15 min at 37° C. […] Cells are then challenged in the presence or absence of drug with the AA/HBSS solution to yield a final concentration of 0.5 μM AA in the CHO[hCOX-1] assay and a final concentration of 10 μM AA in the CHO[hCOX-2] assay. […] The samples are centrifuged at 300×g at 4° C. for 10 min, and an aliquot of the clarified supernatant is appropriately diluted for the determination of PGE2 levels using an enzyme-linked immunoassay for PGE2 (Correlate PGE2 enzyme immunoassay kit, Assay Designs, Inc.). Cyclooxygenase activity in the absence of test compounds is determined as the difference in PGE2 levels of cells challenged with arachidonic acid versus the PGE2 levels in cells mock-challenged with ethanol vehicle. Inhibition of PGE2 synthesis by test compounds is calculated as a percentage of the activity in the presence of drug versus the activity in the positive control samples.

For assay [4], the target named is T1, COX-1. In words: Assay of COX-1 Activity from U937 Cell Microsomes (U937). More on the design: human U-937 cells (which specifically express COX-1); endogenous in cells; host or cells: microsomes of U937 cells. The class given is biochemical. To be noted: U937, PGE2; Table III. As for the experimental part: Compounds are tested as inhibitors of cyclooxygenase activity in whole cell cyclooxygenase assays. Both of these assays measure prostaglandin E2 synthesis in response to arachidonic acid, using a radioimmunoassay. Cells used for these assays are human osteosarcoma 143 cells (which specifically express COX-2) and human U-937 cells (which specifically express COX-1). In these assays, 100% activity is defined as the difference between prostaglandin E2 synthesis in the absence and presence of arachidonate.
For cyclooxygenase assays, osteosarcoma cells are cultured in 1 mL of media in 24-well multidishes (Nunclon) until confluent (1-2×10^5 cells/well). […] All assays are performed in triplicate. […] Arachidonic acid (peroxide-free, Cayman Chemical) is prepared as a 10 mM stock solution in ethanol and further diluted 10-fold in HBSS. An aliquot of 10 μL of this diluted solution is added to the cells to give a final arachidonic acid concentration of 10 μM. Control samples are incubated with ethanol vehicle instead of arachidonic acid. Samples are again gently mixed and incubated for a further 10 min. at 37° C. For osteosarcoma cells, reactions are then stopped by the addition of 100 μL of 1N HCl, with mixing and by the rapid removal of the solution from cell monolayers. For U-937 cells, reactions are stopped by the addition of 100 μL of 1N HCl, with mixing.
U 937 cells are pelleted by centrifugation at 500×g for 5 min and washed once with phosphate-buffered saline and repelleted. Cells are resuspended in homogenization buffer consisting of 0.1 M Tris-HCl, pH 7.4, 10 mM EDTA, 2 μg/ml leupeptin, 2 μg/ml soybean trypsin inhibitor, 2 μg/ml aprotinin and 1 mM phenyl methyl sulfonyl fluoride. The cell suspension is sonicated 4 times for 10 sec and is centrifuged at 10,000×g for 10 min at 4° C. The supernatant is centrifuged at 100,000×g for 1 hr at 4° C. The 100,000×g microsomal pellet is resuspended in 0.1 M Tris-HCl, pH 7.4, 10 mM EDTA to approximately 7 mg protein/ml and stored at -80° C.
Assays are performed in duplicate in a final volume of 250 μl. […]

T1 sequence (P23219 24-599): as above

For `CC1(C)OC(=O)C(Oc2cccc(F)c2)=C1c1ccc(S(C)(=O)=O)cc1` [Example 2, 3-(3-Fluorophenoxy)-5,5-dimethyl-4-(4-(methylsulfonyl)phenyl)-5H-furan-2-one], in assay [1], the IC50 turned out to be 23 µM.

For `CC1(C)OC(=O)C(Oc2ccc(F)cn2)=C1c1ccc(S(C)(=O)=O)cc1` [Example 58], it took a dose of 0.32 mg/kg to reach the 50% effect level in assay [2] (ED50). The IC50 in assay [3] (Table IV) was above 50 µM.

As to `CC1(C)OC(=O)C(Oc2ccc(Cl)cc2)=C1c1ccc(S(C)(=O)=O)cc1` [Example 6, 3-(4-Chlorophenoxy)-5,5-dimethyl-4-(4-(methylsulfonyl)phenyl)-5H-furan-2-one], the IC50 in assay [1] stood at 1.8 µM.

For `CC1(C)OC(=O)C(C(=O)c2ccccc2)=C1c1ccc(S(C)(=O)=O)cc1` [Example 19b, 3-Benzoyl-5,5-dimethyl-4-(4-(methylsulfonyl)phenyl)-5H-furan-2-one], the IC50 in assay [3] (Table III) is above 50 µM.

On to `CC1(C)OC(=O)C(Oc2cc(F)cc(F)c2)=C1c1ccc(S(C)(=O)=O)cc1` [Example 3], for which the IC50 in assay [4] stood at 1 µM.

On to `CS(=O)(=O)c1ccc(C2=C(Sc3ccccc3)C(=O)OC2)cc1` [Example 15, 3-Phenylthio-4-(4-(methylsulfonyl)phenyl)-5H-furan-2-one], for which the IC50 in assay [4] was above 10 µM.

`CC1(C)OC(=O)C(Oc2ccc(Cl)cn2)=C1c1ccc(S(C)(=O)=O)cc1` [Example 25, 3-(5-Chloro-2-pyridyloxy)-5,5-dimethyl-4-(4-(methylsulfonyl)phenyl)-5H-furan-2-one]: the IC50 in assay [4] was found to be 3 µM.

As for `CC1(C)OC(=O)C(Oc2ccc(Br)cn2)=C1c1ccc(S(C)(=O)=O)cc1` [Example 108], the IC50 in assay [3] (Table IV) was above 50 µM.

For the origin of these results see US6020343A, “(Methylsulfonyl)phenyl-2-(5H)-furanones as COX-2 inhibitors” (Merck Frosst Canada, Inc., priority 1998, dated 2000).
